Results reported in patent US20250026721A1, “COMPOUNDS AND METHODS FOR MODULATING RAS-PI3K” (Vividion Therapeutics, Inc., priority 2023, published 2025).

Tests used:
PIK3CA = target: T1, PIK3CA (Homo sapiens, UniProt P42336); experiment: In vitro ELISA target engagement assay for PIK3CA in Jurkat cellular lysate (competition with PIK3CA Biotin Probe); assay type: binding; conditions: 1 hour at rt, then 500 nM PIK3CA Biotin Probe, read-out: Elisa Target Engagement Assay (TE50)
T1 construct: endogenous in cells; host or cells: Jurkat cell lysate
Method in brief: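 Competition format in Jurkat lysate: compound (serial dilutions, top 200 μM) for 1 h at rt, then 500 nM final biotinylated PIK3CA probe for 1 h at rt. Sandwich ELISA with capture antibody and Neutravidin-HRP luminescence read-out measured probe-labelled PIK3CA, giving TE50.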

[1] = test system: pAKT(S473) in FaDu cell line; experiment: In vitro Phospho-AKT(S473) HTRF analysis in FaDu cells; assay type: cell-based; conditions: Homo sapiens, 0.5 h; for IC50: FaDu cells, 30 minutes at 37° C.; for Emax: FaDu, read-out: FaDu pAKT Imax % control
Method in brief: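 FaDu or H358 cells were plated overnight in medium with 1% FBS, then exposed to a compound dose response for 30 minutes at 37° C. Phospho-AKT(S473) levels were measured by HTRF.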

T1 sequence (P42336 whole entry): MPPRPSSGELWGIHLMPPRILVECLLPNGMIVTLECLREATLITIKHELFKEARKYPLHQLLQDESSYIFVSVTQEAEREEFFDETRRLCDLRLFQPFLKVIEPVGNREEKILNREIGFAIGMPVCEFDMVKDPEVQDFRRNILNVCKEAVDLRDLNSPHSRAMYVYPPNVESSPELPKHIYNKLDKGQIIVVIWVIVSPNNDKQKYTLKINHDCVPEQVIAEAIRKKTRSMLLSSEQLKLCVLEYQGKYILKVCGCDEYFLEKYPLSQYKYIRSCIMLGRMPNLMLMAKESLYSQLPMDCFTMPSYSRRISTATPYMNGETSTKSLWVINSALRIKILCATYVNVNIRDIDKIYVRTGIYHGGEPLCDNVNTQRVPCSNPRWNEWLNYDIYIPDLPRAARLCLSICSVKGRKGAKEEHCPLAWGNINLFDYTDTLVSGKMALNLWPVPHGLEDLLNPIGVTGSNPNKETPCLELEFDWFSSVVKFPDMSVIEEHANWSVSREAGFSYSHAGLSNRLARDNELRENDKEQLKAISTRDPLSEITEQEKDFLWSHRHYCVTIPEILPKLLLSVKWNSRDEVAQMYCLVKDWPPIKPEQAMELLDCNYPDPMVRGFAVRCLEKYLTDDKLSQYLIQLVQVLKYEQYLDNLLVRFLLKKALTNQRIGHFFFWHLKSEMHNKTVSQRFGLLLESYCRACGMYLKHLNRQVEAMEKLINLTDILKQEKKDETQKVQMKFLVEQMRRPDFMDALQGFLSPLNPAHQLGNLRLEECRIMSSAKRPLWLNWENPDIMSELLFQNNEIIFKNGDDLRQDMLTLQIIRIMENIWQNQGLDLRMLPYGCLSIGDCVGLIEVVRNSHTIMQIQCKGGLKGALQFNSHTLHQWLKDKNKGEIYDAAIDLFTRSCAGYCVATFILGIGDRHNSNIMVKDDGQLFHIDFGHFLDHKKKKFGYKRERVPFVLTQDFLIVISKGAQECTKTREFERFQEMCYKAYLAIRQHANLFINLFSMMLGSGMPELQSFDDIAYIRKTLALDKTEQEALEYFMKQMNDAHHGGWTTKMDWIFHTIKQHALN
T1 sequence (P27986 whole entry partner): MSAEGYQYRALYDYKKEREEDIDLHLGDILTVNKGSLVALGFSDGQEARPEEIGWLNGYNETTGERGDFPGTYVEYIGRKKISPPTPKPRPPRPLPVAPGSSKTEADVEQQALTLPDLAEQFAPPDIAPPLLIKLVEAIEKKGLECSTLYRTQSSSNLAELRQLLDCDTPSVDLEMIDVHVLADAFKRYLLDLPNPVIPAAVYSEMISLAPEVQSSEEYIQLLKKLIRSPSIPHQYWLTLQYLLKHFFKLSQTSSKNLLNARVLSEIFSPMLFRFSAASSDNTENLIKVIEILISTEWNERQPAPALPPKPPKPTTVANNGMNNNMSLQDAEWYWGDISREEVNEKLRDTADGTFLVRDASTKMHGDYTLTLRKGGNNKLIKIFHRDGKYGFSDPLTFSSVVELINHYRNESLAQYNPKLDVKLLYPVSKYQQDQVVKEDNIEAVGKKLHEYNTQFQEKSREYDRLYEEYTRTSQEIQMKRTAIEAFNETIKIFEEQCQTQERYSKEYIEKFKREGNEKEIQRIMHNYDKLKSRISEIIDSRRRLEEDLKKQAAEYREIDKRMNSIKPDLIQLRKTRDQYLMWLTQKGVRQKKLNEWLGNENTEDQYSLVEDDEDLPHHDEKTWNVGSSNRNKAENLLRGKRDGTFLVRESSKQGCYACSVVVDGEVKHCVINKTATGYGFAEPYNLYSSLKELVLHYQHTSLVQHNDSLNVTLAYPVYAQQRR

| IC50 (PIK3CA) [nM] | IC50 [1] [nM] | SMILES | Emax [1] [%] |
| --- | --- | --- | --- |
| 54.1 | 124 | O=C(/C=C\CNC(=O)C1(F)CCN(S(=O)(=O)c2ccc(Br)cc2-c2ccccc2Cl)CC1)N1CC(F)(F)C1 [Compound 285, (Z)-1-((5-bromo-2′-chloro-[1,1′-biphenyl]-2-yl)sulfonyl)-N-(4-(3,3-difluoroazetidin-1-yl)-4-oxobut-2-en-1-yl)-4-fluoropiperidine-4-carboxamide] | – |
| 120 | 2120 | COc1ccc(C(=O)N2CCC[C@](F)(C(=O)N[C@@H]3C=CS(=O)(=O)C3)CC2)c(-c2ccccc2Cl)c1 [Compound 294, (R)-1-(2′-chloro-5-methoxy-[1,1′-biphenyl]-2-carbonyl)-N-((R)-1,1-dioxido-2,3-dihydrothiophen-3-yl)-4-fluoroazepane-4-carboxamide] | – |
| 720 | 322 | CCOc1ccc(S(=O)(=O)N2CC[C@@](F)(C(=O)N[C@H](C)/C=C/C(=O)N3CC(F)(F)C3)C[C@H]2C)c(-c2ccccc2Cl)c1 [Compound 298, (2R,4S)-1-((2′-chloro-5-ethoxy-[1,1′-biphenyl]-2-yl)sulfonyl)-N-((R,E)-5-(3,3-difluoroazetidin-1-yl)-5-oxopent-3-en-2-yl)-4-fluoro-2-methylpiperidine-4-carboxamide] | 102 |
| 210 | 146 | CCOc1ccc(S(=O)(=O)N2CC[C@@](F)(C(=O)N[C@H](C)/C=C\S(C)(=O)=O)C[C@H]2C)c(-c2ccccc2Cl)c1 [Compound 299, (2R,4S)-1-((2′-chloro-5-ethoxy-[1,1′-biphenyl]-2-yl)sulfonyl)-4-fluoro-2-methyl-N-((R,Z)-4-(methylsulfonyl)but-3-en-2-yl)piperidine-4-carboxamide] | 99.6 |
| 310 | 418 | [2H]C([2H])([2H])Oc1ccc(S(=O)(=O)N2CC[C@@](F)(C(=O)N[C@H](C)/C=C/C(=O)N3CC(F)(F)C3)C[C@H]2C)c(-c2ccccc2Cl)c1 [Compound 300, (2R,4S)-1-((2′-chloro-5-(methoxy-d3)-[1,1′-biphenyl]-2-yl)sulfonyl)-N-((R,E)-5-(3,3-difluoroazetidin-1-yl)-5-oxopent-3-en-2-yl)-4-fluoro-2-methylpiperidine-4-carboxamide] | 94.2 |
| 77 | 117 | [2H]C([2H])([2H])Oc1ccc(S(=O)(=O)N2CC[C@@](F)(C(=O)N[C@H](C)/C=C\S(C)(=O)=O)C[C@H]2C)c(-c2ccccc2Cl)c1 [Compound 301, (2R,4S)-1-((2′-chloro-5-(methoxy-d3)-[1,1′-biphenyl]-2-yl)sulfonyl)-4-fluoro-2-methyl-N-((R,Z)-4-(methylsulfonyl)but-3-en-2-yl)piperidine-4-carboxamide] | 99.8 |
| 557 | 243 | C[C@H](/C=C\S(C)(=O)=O)NC(=O)[C@@]1(F)CCCN(C(=O)[C@H]2CN(C3CC3)C[C@H]2c2ccccc2Cl)CC1 [Compound 303, (R)-1-((3R,4R)-4-(2-chlorophenyl)-1-cyclopropylpyrrolidine-3-carbonyl)-4-fluoro-N-((R,Z)-4-(methylsulfonyl)but-3-en-2-yl)azepane-4-carboxamide] | 102 |
| 85 | 77.1 | C[C@H](/C=C\S(C)(=O)=O)NC(=O)[C@@]1(F)CCCN(S(=O)(=O)c2ccc(C(F)(F)F)cc2-c2ccccc2Cl)CC1 [Compound 310, (R)-1-((2′-chloro-5-(trifluoromethyl)-[1,1′-biphenyl]-2-yl)sulfonyl)-4-fluoro-N—((R,Z)-4-(methylsulfonyl)but-3-en-2-yl)azepane-4-carboxamide] | – |
| 80 | 140 | COc1ccc(S(=O)(=O)N2CCC[C@](F)(C(=O)N[C@H](C)/C=C\S(C)(=O)=O)CC2)c(-c2ccccc2Cl)c1 [Compound 312, (R)-1-((2′-chloro-5-methoxy-[1,1′-biphenyl]-2-yl)sulfonyl)-4-fluoro-N-((R,Z)-4-(methylsulfonyl)but-3-en-2-yl)azepane-4-carboxamide] | – |

Second part, the compound before the results:

| SMILES | IC50 (PIK3CA) [nM] | IC50 [1] [nM] | Emax [1] [%] |
| --- | --- | --- | --- |
| C[C@H](/C=C/C(=O)N1CC(F)(F)C1)NC(=O)[C@@]1(F)CCCN(C(=O)c2ccc(Br)cc2-c2ccccc2Cl)CC1 [Compound 243, (R)-1-(5-bromo-2′-chloro-[1,1′-biphenyl]-2-carbonyl)-N-((R,E)-5-(3,3-difluoroazetidin-1-yl)-5-oxopent-3-en-2-yl)-4-fluoroazepane-4-carboxamide] | 670 | 761 | 68.7 |
| C[C@H](/C=C/C(=O)N1CC(F)(F)C1)NC(=O)[C@@]1(F)CCCN(C(=O)c2ccc(C(F)(F)F)cc2-c2ccccc2Cl)CC1 [Compound 244, (R)-1-(2′-chloro-5-(trifluoromethyl)-[1,1′-biphenyl]-2-carbonyl)-N-((R,E)-5-(3,3-difluoroazetidin-1-yl)-5-oxopent-3-en-2-yl)-4-fluoroazepane-4-carboxamide] | 780 | 1200 | 76.3 |
| C[C@H](/C=C/C(=O)N1CC(F)(F)C1)NC(=O)[C@@]1(F)CCCN(C(=O)c2ccc(C(F)(F)F)cc2-c2c(F)cccc2Cl)CC1 [Compound 245, (4R)-1-(2′-chloro-6′-fluoro-5-(trifluoromethyl)-[1,1′-biphenyl]-2-carbonyl)-N-((R,E)-5-(3,3-difluoroazetidin-1-yl)-5-oxopent-3-en-2-yl)-4-fluoroazepane-4-carboxamide] | 620 | 922 | 86.2 |
| COC[C@@H](/C=C\S(C)(=O)=O)NC(=O)C1(F)CCN(S(=O)(=O)c2ccc(Br)cc2-c2ccccc2Cl)CC1 [Compound 246, (R,Z)-1-((5-bromo-2′-chloro-[1,1′-biphenyl]-2-yl)sulfonyl)-4-fluoro-N-(1-methoxy-4-(methylsulfonyl)but-3-en-2-yl)piperidine-4-carboxamide] | 42 | 163 | – |
| COC[C@@H](/C=C\S(C)(=O)=O)NC(=O)C1(F)CCN(S(=O)(=O)c2ccc(OC)cc2-c2ccccc2Cl)CC1 [Compound 248, (R,Z)-1-((2′-chloro-5-methoxy-[1,1′-biphenyl]-2-yl)sulfonyl)-4-fluoro-N-(1-methoxy-4-(methylsulfonyl)but-3-en-2-yl)piperidine-4-carboxamide] | 170 | 557 | – |
| CC(C)(/C=C/C(=O)N1CC(F)(F)C1)NC(=O)C1(F)CCN(S(=O)(=O)c2ccc(C(F)(F)F)cc2-c2ccccc2Cl)CC1 [Compound 249, (E)-1-((2′-chloro-5-(trifluoromethyl)-[1,1′-biphenyl]-2-yl)sulfonyl)-N-(5-(3,3-difluoroazetidin-1-yl)-2-methyl-5-oxopent-3-en-2-yl)-4-fluoropiperidine-4-carboxamide] | 620 | 1200 | 82.8 |
| C[C@H](/C=C\S(C)(=O)=O)NC(=O)[C@]1(F)CCN(S(=O)(=O)c2ccc(OC(F)(F)F)cc2-c2ccccc2Cl)[C@H](C)C1 [Compound 250, (2R,4S)-1-((2′-chloro-5-(trifluoromethoxy)-[1,1′-biphenyl]-2-yl)sulfonyl)-4-fluoro-2-methyl-N-((R,Z)-4-(methylsulfonyl)but-3-en-2-yl)piperidine-4-carboxamide] | 350 | 1640 | 96.8 |
| C[C@H](/C=C/C(=O)N1CC(F)(F)C1)NC(=O)[C@]1(F)CCN(S(=O)(=O)c2ccc(OC(F)F)cc2-c2ccccc2Cl)[C@H](C)C1 [Compound 251, (2R,4S)-1-((2′-chloro-5-(difluoromethoxy)-[1,1′-biphenyl]-2-yl)sulfonyl)-N-((R,E)-5-(3,3-difluoroazetidin-1-yl)-5-oxopent-3-en-2-yl)-4-fluoro-2-methylpiperidine-4-carboxamide] | 260 | 249 | 102 |
| C[C@H](/C=C/C(=O)N1CC(F)(F)C1)NC(=O)[C@]1(F)CCN(S(=O)(=O)c2ccc(C(F)F)cc2-c2ccccc2Cl)[C@H](C)C1 [Compound 253, (2R,4S)-1-((2′-chloro-5-(difluoromethyl)-[1,1′-biphenyl]-2-yl)sulfonyl)-N-((R,E)-5-(3,3-difluoroazetidin-1-yl)-5-oxopent-3-en-2-yl)-4-fluoro-2-methylpiperidine-4-carboxamide] | 160 | 267 | 77.2 |
| C[C@H](/C=C\S(C)(=O)=O)NC(=O)[C@@]1(F)CCCN(C(=O)[C@@]2(C)CN(CC(F)(F)F)C[C@H]2c2ccccc2Cl)CC1 [Compound 254, (R)-1-((3R,4R)-4-(2-chlorophenyl)-3-methyl-1-(2,2,2-trifluoroethyl)pyrrolidine-3-carbonyl)-4-fluoro-N-((R,Z)-4-(methylsulfonyl)but-3-en-2-yl)azepane-4-carboxamide] | 880 | 911 | 92.5 |
| O=C(/C=C/CNC(=O)C1(F)CCN(S(=O)(=O)c2ccc(Br)cc2-c2ccccc2Cl)CC1)N1CC(F)(F)C1 [Compound 282, (E)-1-((5-bromo-2′-chloro-[1,1′-biphenyl]-2-yl)sulfonyl)-N-(4-(3,3-difluoroazetidin-1-yl)-4-oxobut-2-en-1-yl)-4-fluoropiperidine-4-carboxamide] | 140 | 367 | – |
| O=C(/C=C\CNC(=O)C1(F)CCN(S(=O)(=O)c2ccc(C(F)(F)F)cc2-c2ccccc2Cl)CC1)N1CC(F)(F)C1 [Compound 284, (Z)-1-((2′-chloro-5-(trifluoromethyl)-[1,1′-biphenyl]-2-yl)sulfonyl)-N-(4-(3,3-difluoroazetidin-1-yl)-4-oxobut-2-en-1-yl)-4-fluoropiperidine-4-carboxamide] | 61 | 67.4 | – |
